The record followed here is article PMC7136958, “Targeting the pregnane X receptor using microbial metabolite mimicry” (EMBO Molecular Medicine, 2020).

Where “and” joins values, the source holds several entries; their conditions need not be identical. Identical values can stand only once. Like-named read-outs stand apart in the source and are kept apart here.

Data set [1] concerns the target T1, Mouse pregnane X receptor (mPXR) (Mus musculus, UniProt O54915).
T1 construct: expressed in transfected cells; host or cells: HEK293T
As to the kind of experiment: mPXR reporter (MRP2) activity in HEK293T cells. It is filed as cell-based. How it is done:
Reverse transfection assays were performed in Caco‐2 cells as previously published with the following modifications (Kublbeck et al, 2015). 3.0 × 10^4 cells per well were transfected using pSG5‐PXR plasmid (300 ng/well), β‐Gal expression plasmid (600 ng/well), and CYP3A4‐luciferase reporter (500 ng/well) (Huang et al, 2007). After 24‐h transfection using Lipofectamine® LTX ([…] of plasmid), cells were exposed to FKK5 for 24 h. Cell lysates were prepared for β‐Gal and luciferase assays as previously published (Huang et al, 2007). The data are expressed as mean ± SD RLU (relative light units from luciferase assay) normalized to β‐Gal activity in the same well. Differences were tested using 2‐way ANOVA with Tukey's multiple comparison test, and P < 0.05 was considered significant (*). Standard transient transfection assays (PXR, CAR) in HEK293T cells were performed as previously published (Huang et al, 2007).

The next data set relates to pxr -/- mice. In words: PXR target gene expression in pxr -/- mice after FKK6 gavage. It is filed as in vivo, mouse. Conditions: for Cyp3a11 fold expression / mdr1 fold expression: Fig 4e. The protocol:
(§1) (Scheer et al, 2010) were administered 10% DMSO (n = 3) or FKK6 (n = 3) in 3 or 5 doses, with each dose interval of 12 h. Each gavage dose volume was 100 μl. 2–4 h after the dosing period, mice were sacrificed, and tissues were harvested for further analysis. The mouse studies were performed three independent times over an 18‐month period. All purchased mice were acclimatized in the Einstein vivarium for ~ 2 weeks before experiments started. […]. The room temperature was maintained at 25 ± 2°C with 55 ± 5% humidity. All studies were approved by the Institute of Animal Studies at the Albert Einstein College of Medicine, INC (IACUC # 20160706, 20160701 and preceding protocols), and specific animal protocols were also approved by additional protocols (IACUC# 20170406, 20170504) and Animal Care and Use Review Office (ACURO) of the US Army Medical Research and Materiel Command (PR160167, W81XWH‐17‐1‐0479). […]
(§2) Mouse small, large intestine and liver samples were collected and total RNAs were […]
(§3) isolated. […] Each tissue PCR was […]
(§4) repeated in quadruplicate. The expression was normalized to internal control, GAPDH. ( b,d) The histograms show mean (95 %CI) values, c, mean (SD) and two way ANOVA followed with Tukey's post hoc test. The entire experiment was repeated n = 3 for reproducibility. The data shown is one representative experiment .

The test system of a further data set is mdr1. The data set is described as above. It is filed as in vivo, mouse. Particulars: pxr-/- (PXR knockout), mouse, oral, 500 μM, 5 doses (60 h), mean. The protocol: as §1, §2, §3, §4
A further data set concerns Cyp3a11. Described as above. Particulars: pxr-/- (PXR knockout), mouse, oral, 500 μM, 5 doses (60 h), mean. The class given is in vivo, mouse. How it is done: as §1, §2, §3, §4
The test system of another data set is NF-κB. As to the kind of experiment: TNF-α-induced NF-κB reporter assay in LS174T PXR-KO cells. Conditions: for NFkB NanoLuc luminescence, aver / NFkB %max: LS174T PXR-KO, EXP3; for NFkB %max: TNFa 5 ng/ml = 100. From the text: In early passage PXR‐KO cells, we used PXR and NF‐κB reporter‐co‐transfected and NF‐κB reporter‐transfected PXR‐KO cell line.
CRISPR/Cas9‐mediated knockout cells were generated by Synthego Corporation (Redwood City, CA, USA). Briefly, cells were first tested negative for mycoplasma. Guide RNA was selected for high activity, specificity, and activity to create premature stop codons through frameshift mutations in the coding region via insertions and/or deletions (Indels) within exon 2 of the gene encoding human PXR (NR1I2 transcript ID ENST00000337940). […] To generate these cells, ribonucleoproteins (RNPs) containing the Cas9 protein and synthetic chemically modified sgRNA (Synthego) were electroporated into the cells using Synthego's optimized protocol. Editing efficiency is assessed upon recovery, 48 h post‐electroporation. Genomic DNA is extracted from a portion of the cells, PCR‐amplified, and sequenced using Sanger sequencing. The resulting chromatograms are processed using Synthego Inference of CRISPR Edits software (ice.synthego.com).

T1 sequence (O54915 whole entry): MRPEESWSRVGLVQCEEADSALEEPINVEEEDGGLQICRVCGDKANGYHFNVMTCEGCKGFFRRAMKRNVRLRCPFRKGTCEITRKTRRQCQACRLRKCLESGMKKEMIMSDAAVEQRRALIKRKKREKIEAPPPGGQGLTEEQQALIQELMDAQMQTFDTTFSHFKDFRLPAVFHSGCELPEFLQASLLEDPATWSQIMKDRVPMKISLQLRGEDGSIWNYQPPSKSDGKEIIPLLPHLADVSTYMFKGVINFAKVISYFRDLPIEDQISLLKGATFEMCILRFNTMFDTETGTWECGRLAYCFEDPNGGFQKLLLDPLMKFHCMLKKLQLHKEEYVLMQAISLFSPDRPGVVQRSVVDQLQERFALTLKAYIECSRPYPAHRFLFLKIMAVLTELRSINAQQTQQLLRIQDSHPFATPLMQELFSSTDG

Regarding `C#CCC(O)(c1ccncc1)c1cc2ccccc2n1S(=O)(=O)c1ccccc1` (stereo not drawn) [FKK6], the “mouse PXR activation” value in data set [1] is reported as “did not significantly activate”. Besides, the “PXR target gene (mdr1) expression across organs” value in the data set on pxr -/- mice (36 h and 60 h) is listed as “no effect”. In addition, the Cyp3a11 fold expression was 0.69 fold and 0.64 fold and 0.66 fold in the data set with pxr -/- mice (Large Intestine); 0.84 fold and 1.18 fold and 1.42 fold with pxr -/- mice (Liver); 0.98 fold and 0.96 fold and 1.09 fold in the data set with pxr -/- mice (Small Intestine). In addition, the mdr1 fold expression is 0.87 fold and 0.67 fold and 0.93 fold in the data set on pxr -/- mice (Large Intestine); 0.52 fold and 0.37 fold and 0.63 fold in the data set with pxr -/- mice (Small Intestine). Further, the “target gene expression levels (cyp3a11, mdr1) decrease vs DMSO” value in the data set on pxr -/- mice (mouse, in vivo) was not above 1.5 fold. Moreover, the fold induction at 60 h, 500 µM in the data set on mdr1 (large intestine, read-out: mdr1 fold induction, Large Intestine) turned out to be 0.71; in the data set with mdr1 (liver, read-out: mdr1 fold induction, Liver), 1.22; in the data set on mdr1 (small intestine, read-out: mdr1 fold induction, Small Intestine), 1.16; with Cyp3a11 (large intestine, × DMSO, read-out: Cyp3a11 fold induction, Large Intestine), 0.36; in the data set on Cyp3a11 (liver, read-out: Cyp3a11 fold induction, Liver), 1.54; in the data set on Cyp3a11 (small intestine, × DMSO, read-out: Cyp3a11 fold induction, Small Intestine), 0.25. Besides, the “NFkB NanoLuc luminescence, aver” value worked out at 70912.7 in the data set with NF-κB (1 μM + TNFα 5 ng/ml), 56963.0 with NF-κB (10 μM + TNFα 5 ng/ml) and 50715.5 in the data set on NF-κB (25 μM + TNFα 5 ng/ml). In addition, the NFkB %max in the data set on NF-κB (1 μM + TNFα 5 ng/ml) was 128.7% and 128.74%; in the data set with NF-κB (10 μM + TNFα 5 ng/ml) it was 103.4% and 103.41%; in the data set on NF-κB (25 μM + TNFα 5 ng/ml), 92.1% and 92.07%. Also, the NF-κB reporter activity result in the data set with NF-κB (TNF-exposed PXR-KO cells) is “neither rifampicin nor FKK6 repressed”.
